These results are taken from patent publication US20090023771A1, “PHARMACEUTICAL COMPOSITION COMPRISING A PROTON PUMP INHIBITOR AND PROTEIN COMPONENT” (The Curators of the University of Missouri, priority 2007, published 2009).

Structures are written as SMILES.

The nature of this data set: Degradation of omeprazole (PPI) by stomach acid when combined with buffering agent and/or protein component (FIGS. 1-6). To be noted: 40 mg omeprazole with 800 mg aluminum glycinate and 800 mg sodium bicarbonate (20:1 each); FIGS. 5 and 6; compared with sodium bicarbonate and omeprazole alone (FIGS. 3 and 4). It is filed as physicochemical. Here is the method: FIG. 2 is a line graph illustrating the degradation of 40 mg omeprazole when it is administered with 800 mg of L-carnosine and 800 mg sodium bicarbonate (20:1 ratio of L-carnosine to omeprazole and sodium bicarbonate to omeprazole). FIG. 4 is a line graph illustrating the degradation of 40 mg omeprazole when it is administered with 1600 mg sodium bicarbonate (40:1 ratio). FIG. 6 is a line graph illustrating the degradation of 40 mg omeprazole when it is administered with 800 mg of aluminum glycinate and 800 mg sodium bicarbonate (20:1 ratio of aluminum glycinate to omeprazole and sodium bicarbonate to omeprazole).

Take `COc1ccc2[nH]c([S+]([O-])Cc3ncc(C)c(OC)c3C)nc2c1` (stereo not shown) [omeprazole]: the “degradation of the omeprazole” value is recorded as “immediate degradation”.
